From patent publication US20200121695A1, “COMPOSITIONS AND METHODS FOR TREATING ITCH, SKIN INFLAMMATION, AND PRURITUS” (priority 2017, published 2020)

Assay: Case report: with menstrual-cycle itching, elevated ALP and PBC/AIH overlap syndrome
Assay type: in vivo, human
Conditions: person, Ursodiol 300 mg three times a day plus mycophenolate mofetil 500 mg four times a day for 1 year, together with replacement of Nuva Ring by copper IUD and dietary changes
Description: The itching was predominantly concentrated on hands, feet, back, and stomach area, and the symptoms disappeared as soon as menstruation began. They previously used Nuva Ring for about three years, followed by approximately 5.5 year hiatus. The medical history and gynecological clinical examination were not unusual, with the exception of elevated liver enzymes having been discovered about two years prior to visit. […] The initial treatment thus comprised short-term moderate amounts of Prednisone, with the regiment starting about the time of re-start of the Nuva Ring use. Approximately two months after the start of Prednisone regimen the patient was diagnosed with an overlap syndrome of Primary Biliary Cholangitis/Cirrhosis (PBC) and Autoimmune Hepatitis (AIH). […] New treatment regimen was implemented. Nuva Ring was replaced with a non-hormonal intrauterine device (copper) to enable treatment with immunosuppressive drugs. Additionally steroid drugs, Ursodiol (300 mg three times a day) and mycophenolate mofetil (Cellcept, 500 mg, four times a day), regimen was started in order to reduce AST levels, and continued for 1 year. Finally dietary changes eliminating foods that are rich in zinc and vitamin B12 were effected.

Row | SMILES | itching symptoms at the time of menstruation
1 | C[C@H](CCC(=O)O)[C@H]1CC[C@H]2[C@@H]3[C@@H](O)C[C@@H]4C[C@H](O)CC[C@]4(C)[C@H]3CC[C@]12C [Ursodiol] | significant reduction of the itching symptoms
2 | COc1c(C)c2c(c(O)c1C/C=C(\C)CCC(=O)OCCN1CCOCC1)C(=O)OC2 [mycophenolate mofetil] | significant reduction of the itching symptoms
